As usually defined, the MIC is the least concentration at which growth counts as inhibited.

Data on 9 compounds can be found in US8399506B2, “Combinations of 4 bromo-2-(4-chlorophenyl)-5-(trifluoromethyl)-1H-pyrrole-3-carbonitrile and oxidizing agents” (Janssen Pharmaceutica, NV, priority 2006, dated 2013).

Like-named read-outs stand apart in the source and are kept apart here.

Data set [1] concerns Chlorella vulgaris CCAP 211/12. The experiment in a line: Experiment 2 poison plate assay, algae species (1). Conditions: 24-well plates, BG 11 medium, after 3 weeks of exposure, total active ingredient, ratio (I) to (II) in label. It is filed as cell-based. How it is done:
(§1) Synergism between component (I) and one of the components (II) was determined by a commonly used and accepted method described by Kull F. C. et al. in Applied Microbiology, 9, 538-541 (1961) using the Synergy Index, which is calculated as follows for two compounds A and B:
(§2) [formula] wherein: • QA is the concentration of compound A in ppm, acting alone, which produced an end point (e.g. MIC), • Qa is the concentration of compound A in ppm, in the mixture, which produced an end point (e.g. MIC), • QB is the concentration of compound B in ppm, acting alone, which produced an end point (e.g. MIC), • Qb is the concentration of compound B in ppm, in the mixture, which produced an end point (e.g. MIC).
(§3) MIC is the minimum inhibitory concentration, i.e. the lowest concentration of each test compound or mixture of test compounds sufficient to inhibit visible growth.
(§4) When the Synergy Index is greater than 1.0, antagonism is indicated. When the SI is equal to 1.0, additivity is indicated.
(§5) Synergism between component (I) and one of the components (II) was determined using the Synergy Index as outlined above in Experiment 1.

Data set [2] relates to Anabaena cylindrica CCAP 1403/2A. The experiment in a line: Experiment 1 poison plate assay, algae species (2). It is filed as cell-based. Conditions: for MIC-values in ppm: 24-well plates, BG 11 medium, after 3 weeks of exposure, total active ingredient, ratio (I) to (II) in label. On the procedure:
as §1, §2, §3, §4

Data set [3] relates to Chlamydomonas sphagnophila CCAP 11/36E. As to the kind of experiment: Experiment 1 poison plate assay, algae species (3). Format: cell-based. Conditions: 24-well plates, BG 11 medium, after 3 weeks of exposure, total active ingredient, ratio (I) to (II) in label. On the procedure: as §1, §2, §3, §4
The subject of data set [4] is Artemia salina (EG Artemia Cysts, Great Salt Lake strain). As to the kind of experiment: Experiment 1 poison plate assay, Artemia salina larvae. It is filed as in vivo. Conditions: Artemia salina larvae (24 hours old), artificial seawater; after 24 hours of exposure; total active ingredient; ratio (I) to (II) in label. On the procedure:
as §1, §2, §3, §4

For data set [5], the system named is Anabaena cylindrica CCAP 1403/2A. As to the kind of experiment: Experiment 2 poison plate assay, algae species (2). Format: cell-based. Conditions: 24-well plates, BG 11 medium, after 3 weeks of exposure, total active ingredient, ratio (I) to (II) in label. How it is done: as §1, §2, §3, §4, §5
The subject of the next data set is Tribonema sp. CCAP 880/2. As to the kind of experiment: Experiment 2 poison plate assay, algae species (4). Format: cell-based. On the procedure: as §1, §2, §3, §4, §5
For data set [6] the following is noted: buffer.

Turning to `O=S(=O)([O-])OOS(=O)(=O)[O-].[K+].[K+]` [(II-d), potassium peroxydisulfate], the MIC-values in ppm in data set [1] is listed as 60.0 ppm.

On to `[Na+].[O-]Cl` [(II-b), sodium hypochlorite], for which the MIC-values in ppm worked out at 33.8 ppm in data set [2], 107.0 ppm in data set [3] and 200.00 ppm in data set [4].

On to `OO` [(II-a), hydrogen peroxide], for which the figures for the MIC-values in ppm in data set [2] and in data set [3] were 25.3 ppm and 45.0 ppm, respectively.

For `N#Cc1c(-c2ccc(Cl)cc2)[nH]c(C(F)(F)F)c1Br` [(I), 4-bromo-2-(4-chlorophenyl)-5-(trifluoromethyl)-1H-pyrrole-3-carbonitrile], the MIC in data set [2] (CCAP1403/2A, 504 h, read-out: MIC-values in ppm) turned out to be 107 µg/mL; with Tribonema sp. CCAP 880/2 (504 h, read-out: MIC-values in ppm), 107 µg/mL. Also, the MIC-values in ppm in data set [3] came out at 107.0 ppm; in data set [4], 0.13 ppm; in data set [1] it was 107.0 ppm; in data set [5] (listed as (I) + (II-e) 100 + 0), 19 ppm; in data set [5] (listed as (I) + (II-f) 100 + 0) it was 25.3 ppm; in data set [5] (listed as (I) + (II-g) 100 + 0) it was 6.00 ppm. For the same compound, the half-life result was “a couple of days” in data set [6] and “a few hours” in data set [6] (pH 8.3).

As for `[O][Cl+][O-]` [(II-c), chlorine dioxide], in data set [1], the MIC-values in ppm stood at 9.49 ppm.

potassium (VI) ferrate [(II-h)]: the MIC-values in ppm in the data set on Tribonema sp. CCAP 880/2 (Tribonema sp., 24-well plates, BG 11 medium, after 3 weeks of exposure, total active ingredient, ratio (I) to (II) in label) is given as 80.0 ppm.

potassium nitrosodisulfonate [(II-g)]: the MIC-values in ppm in data set [5] turned out to be 80.0 ppm.

For potassium superoxide [(II-e)], in data set [5], the MIC-values in ppm is 45.0 ppm.

For the compound `[K+].[K+].[O-][O-]` [(II-f), potassium peroxide], the MIC-values in ppm in data set [5] turned out to be 10.7 ppm.
